Consider one substance from patent US11191293B2, “Nutritional composition and infant formula for promoting myelination of the brain” (NESTEC S.A., priority 2015, dated 2021).

In assay [1] the test system is neural progenitor cell (NPCs). The experiment in a line: Neurosphere counts in 96-well plates. It is filed as cell-based, mouse. As to conditions: cells grown for 2 days. The procedure: Generation of neural progenitor cell (NPCs) libraries:
dissociation of E14 mouse neocortex
E14 pup brains were harvested and placed in ice cold DPBS(1X)+10% Pen/Strep, then they were dissected using a dissecting microscope. From each pup, one brain hemisphere was placed in 2 ml of Neurobasal media/10% P/S/10X Hepes and another brain hemisphere was placed in another tube.
The tissue from each tube was aseptically and manually dissociate into single cells, neurobasal complete medium was added and centrifuged at 130G for 5 min. The tissue was then re-suspended in neurobasal complete media with GF and placed in a corning suspension culture dish 100 mm×20 mm (#430591). Cells were passage twice using a 1:3 ratio, after what they were centrifuged (130 g 5 min), resuspended in freezing media (10% DMSO and neurobasal complete media, no GF) and frozen in liquid nitrogen (LN2).
Corning Costar 3474, 96 well plate, Ultra low attachment
3-4 mLs of cells were taken out of the tilted plate and add to a 15 ml conical. Some of the remaining media was used to rinse down the plate. All remaining media was drawn up and put into a 15 ml conical tube, and Spun at 130 G for 5 min. All media was removed. The cells were gently resuspended in 5 mls of warm PBS, spun again. PBS was then removed and the cells were then gently resuspended in 500 μl of Accutase(Corning™ Accutase™ Cell Detachment Solution, #25058Cl). The cells were then Pipetted gently with a 1000 μl tip to break up pellet, and then they were placed in a shaking water bath for 5-10 minutes, after which time they were swirled by hand frequently.
Control and compound media was made with #2 media and contain 29 uM Choline, low (5 uM) and medium (70 uM) choline media was made with #3 media.
Clumps were no bigger than ˜3-5 cells. 5-10 mls of warm media (GF) was added to dilute enzyme. 2 mls of media was added. […]
in AB staining solution for five min. Imaging was carried out using a GE Cytell imager or LSM 710, Zeiss confocal microscope and the diameters of neurospheres with ImageJ software (National Institutes of Health) was analysed.

Assay [2] has as its system neural progenitor cell (NPCs). The experiment in a line: Monolayer culture NPC proliferation assay. As to conditions: 3 days culture. The assay is classed as cell-based, mouse. The procedure: 24 well glass bottom plates (Mat Tek P24G-1.0-13-F Case, glass bottom 24 well plates) were coated with poly-L-ornithin (Sigma P4957) and Fibronection (Sigma F1141) before use in the assay below.
Cells were plated (10,000 cells per well) in Complete media with GF for 24 hours (500 ul per well). Once cells had been attached they were switched to choline deficient media, other compound media, or appropriate media.
After 24 h, it was ensured that cells had attached to the plate then the medium was carefully removed. 500 μL of compound media plus GF.was added. The cells were cultured for 3 days in appropriate media.
Control and compound media was made with #2 media and contains 29 uM Choline, Low (5 uM) and medium (70 uM) choline media was made with #3 media.
EDU incorporation was measured using Click-iT® EdU Alexa Fluor® 555 Imaging Kit (Life technologies, #c10338).
At the end of day 3 EdU was added to each well at 10 μM for 30 minutes prior to fixation. For fixation and subsequent immunohistochemical analysis, the medium was removed, the cells were rinsed once with 1X PBS for 5 min, and fixed with 4% PFA in 1X PBS for 15 min at 4° C., then the cells were washed twice with 1X PBS for 5 min, left in 1X PBS, wrapped in foil and leave overnight at 4° C., or staining was proceeded with.
PBS was removed and enough AB staining solution (1% Goat
serum, 1xPBS, and 0.1% triton X) added to cover the bottom, the blockwas kept at room temp for 1 hour. The cells were stained for EDU. The cells were Incubated for 30 min at room temp, in the dark. The cells were washed with 1X PBS and stained with Dapi 1:5000 ul for 15 min. The cells were washed once with 1X PBS, then left in PBS at 4° C., or Imaged immediately using a GE Cytell imager (cell viability
application), or LSM 710, Zeiss confocal microscope (with ImageJ software (National Institutes of Health) analysis).

Assay [3] relates to brain myelination (myelin water fraction). The experiment in a line: Cross-sectional correlation of infant formula nutrient content with brain myelination (mcDESPOT MRI myelin water fraction). It is filed as in vivo, human. As to conditions: formula-fed children up to 5 years of age; brain regions named per nutrient. The procedure: MRI (Magnetic Resonance Imaging): MRI brain scans of infants and children between 0 and 5 years were acquired using a white matter imaging technique. This technique provides a quantitative measure, the Myelin Water Fraction (MWF), which is a surrogate marker of myelin content in the brain. When mapped as a function of time across early childhood, myelination trajectories can be generated.
Infant formula composition: six infant formulas fed to infants participating in a study were analyzed for their composition/level of myelin-relevant nutrients.
Infants included in this study were drawn from a larger longitudinal study of normal brain and behavioral development: the Brown University Assessment of Myelination and Behavior Across Maturation (BAMBAM). To focus on neurotypical development, children with known potential risk factors for learning, neurologic, or psychiatric disorders were specifically excluded during recruitment and enrollment. Thus, children with in utero alcohol or illicit substance exposure, premature (<37 weeks gestation) or multiple birth, fetal ultrasound abnormalities, complicated pregnancy (e.g., preeclampsia), APGAR scores <8, NICU admission, neurological disorder (e.g., head injury, epilepsy), psychiatric or developmental disorders in the infant, parents or siblings (including maternal depression requiring medication) were excluded. Ongoing screenings, such as the MCAT for autism, or CBCL for behavioral problems, were further used to remove enrolled children with clinically concerning behaviors or overt medical conditions (such as autism spectrum disorders).
A combination of retrospective and prospective data were acquired from parents via detailed medical histories and parental interview on the type of infant formula used, percentage of breastfeeding to formula feeding, and length of exclusive breastfeeding. This information was updated at each study visit, which occurred approximately every 6 months for children under 2 years, and yearly for older children. Using this information, children were categorized into one of 2 groups: #1. Exclusively formula-fed; and #2. Exclusively breastfed for at least 90 days (3 months). Children who were fed a combination of breastmilk and formula within 3 months were excluded from our analysis. Infants within the exclusively formula-fed group were further sub-divided based on parental reports of the main infant formula used throughout the first 3 months. Main formula was defined as that given 90% of the time or more (in the case were parents used an alternate brand during vacation, for example).
Using these criteria, 94 exclusively formula-fed infants and young children were selected into group #1. These included 13 children who received formula #2; 28 who received formula #5; 8 who received formula #3; 39 who received formula #4; 5 who received formula #1 and 1 who received formula #6. A sample of 52 exclusively breast-fed infants were also selected and matched to the over formula-fed group with regards to mean age, gestation duration, birth weight, male:female ratio, ethnicity ratio, maternal education, family size, and number of languages spoken in the home (in addition to English).
Each infant was scanned using the mcDESPOT (multicomponent Driven Equilibrium Single Pulse Observation of T1 and T2) white matter imaging technique Deoni et al. (Magn. Reson. Med. 2008, 60:1372-1387), which provides a quantitative measure of the myelin water fraction (MWF)—a measure of myelin content—at each point throughout the brain. All infants were scanned during natural (i.e. non-sedated) sleep using acoustically-muffled mcDESPOT imaging protocols. Total imaging times ranged from 19 minutes for the youngest toddlers to 24 minutes for the older 4 year-old children.

Consider Sphingomyelin, for which the “number of neurospheres, Average (Mean)” value in assay [1] (Sphingomyelin High (Dose 3, 1 μm)) worked out at 219; in assay [1] (Sphingomyelin Low (Dose 1, 10 nM)) it was 94; in assay [1] (Sphingomyelin Med (Dose 2, 100 nM)) it was 121. The “neuronal proliferation, DAPI” value came out at 305 in assay [2] (Sphingomyelin high (Dose 3, 1 μm)); 280 in assay [2] (Sphingomyelin low (Dose 1, 10 nM)); 314 in assay [2] (Sphingomyelin med (Dose 2, 100 nM)). In addition, the “association of nutrient content of infant formula with myelination (myelin water fraction) over time in the brain” value in assay [3] is given as “an association with myelination (myelin water fraction) was observed”.
